These results are taken from patent publication US20220193076A1, “METHODS OF TREATING BREAST CANCER WITH TUCATINIB” (Seagen Inc., priority 2019, published 2022).

SMILES strings stand for the structures.

The target of data set [1] is T1, MATE1 (Homo sapiens, UniProt Q96FL8).
T1 sequence (Q96FL8 1-570): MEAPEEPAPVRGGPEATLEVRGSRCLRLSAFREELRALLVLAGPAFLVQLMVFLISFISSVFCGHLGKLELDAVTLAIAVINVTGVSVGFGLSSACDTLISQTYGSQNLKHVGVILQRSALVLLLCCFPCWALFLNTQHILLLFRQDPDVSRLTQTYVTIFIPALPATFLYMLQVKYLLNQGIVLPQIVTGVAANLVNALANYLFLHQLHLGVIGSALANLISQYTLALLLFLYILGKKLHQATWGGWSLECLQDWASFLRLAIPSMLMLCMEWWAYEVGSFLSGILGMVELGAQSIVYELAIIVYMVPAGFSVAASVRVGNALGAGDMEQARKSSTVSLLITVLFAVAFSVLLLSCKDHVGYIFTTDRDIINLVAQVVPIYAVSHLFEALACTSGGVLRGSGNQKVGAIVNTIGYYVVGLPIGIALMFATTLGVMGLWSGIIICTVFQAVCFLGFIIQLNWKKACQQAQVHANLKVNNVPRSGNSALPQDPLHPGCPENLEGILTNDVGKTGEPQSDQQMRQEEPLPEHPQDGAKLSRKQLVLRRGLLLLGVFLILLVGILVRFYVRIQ
As to the kind of experiment: In vitro inhibition of MATE1 transporter. The format is in vitro ADME.

The target of data set [2] is MATE2K (Homo sapiens, UniProt Q86VL8). The experiment in a line: In vitro inhibition of MATE2K transporter. The format is in vitro ADME.
MATE2K, sequence (Q86VL8 1-566 isoform Q86VL8-3): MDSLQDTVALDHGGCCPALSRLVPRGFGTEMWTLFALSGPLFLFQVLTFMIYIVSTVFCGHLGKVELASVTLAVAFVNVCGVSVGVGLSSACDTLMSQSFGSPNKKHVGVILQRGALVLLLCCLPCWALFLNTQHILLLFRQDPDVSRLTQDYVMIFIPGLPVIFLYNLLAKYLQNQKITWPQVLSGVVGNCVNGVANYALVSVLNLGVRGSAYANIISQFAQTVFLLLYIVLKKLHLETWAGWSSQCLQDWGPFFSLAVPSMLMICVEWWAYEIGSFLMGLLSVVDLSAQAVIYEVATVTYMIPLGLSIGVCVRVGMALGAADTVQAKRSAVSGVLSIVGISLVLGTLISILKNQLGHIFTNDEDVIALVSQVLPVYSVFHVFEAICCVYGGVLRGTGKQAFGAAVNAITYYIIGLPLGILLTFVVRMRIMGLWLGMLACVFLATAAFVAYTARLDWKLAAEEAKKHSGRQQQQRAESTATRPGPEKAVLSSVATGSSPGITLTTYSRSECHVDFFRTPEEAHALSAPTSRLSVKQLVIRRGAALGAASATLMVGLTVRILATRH
The nature of data set [3]: Example 1: plasma tucatinib trough concentrations. The class given is in vivo, human. As to conditions: 300 mg tucatinib bid from Day 2.
A short description of data set [4]: Predicted hepatic metabolic stability across species. The format is in vitro ADME.
Data set [5] is described as follows: Clinical plasma concentration of tucatinib. The format is in vivo. As to conditions: human, read-out: Mean clinical maximum observed concentration (Cmax).
Data set [6] relates to CYP3A4. The experiment in a line: In vitro enzyme activity / mRNA induction in human hepatocytes. The class given is in vitro ADME.
Data set [7] has as its system CYP1A2. Described as above. The format is in vitro ADME.
The target in data set [8] is P-glycoprotein (P-gp) (Homo sapiens, UniProt P08183). The experiment in a line: P-gp substrate assessment and inhibition of P-gp-mediated efflux of digoxin. The class given is in vitro ADME.
P-glycoprotein (P-gp), sequence (P08183 whole entry): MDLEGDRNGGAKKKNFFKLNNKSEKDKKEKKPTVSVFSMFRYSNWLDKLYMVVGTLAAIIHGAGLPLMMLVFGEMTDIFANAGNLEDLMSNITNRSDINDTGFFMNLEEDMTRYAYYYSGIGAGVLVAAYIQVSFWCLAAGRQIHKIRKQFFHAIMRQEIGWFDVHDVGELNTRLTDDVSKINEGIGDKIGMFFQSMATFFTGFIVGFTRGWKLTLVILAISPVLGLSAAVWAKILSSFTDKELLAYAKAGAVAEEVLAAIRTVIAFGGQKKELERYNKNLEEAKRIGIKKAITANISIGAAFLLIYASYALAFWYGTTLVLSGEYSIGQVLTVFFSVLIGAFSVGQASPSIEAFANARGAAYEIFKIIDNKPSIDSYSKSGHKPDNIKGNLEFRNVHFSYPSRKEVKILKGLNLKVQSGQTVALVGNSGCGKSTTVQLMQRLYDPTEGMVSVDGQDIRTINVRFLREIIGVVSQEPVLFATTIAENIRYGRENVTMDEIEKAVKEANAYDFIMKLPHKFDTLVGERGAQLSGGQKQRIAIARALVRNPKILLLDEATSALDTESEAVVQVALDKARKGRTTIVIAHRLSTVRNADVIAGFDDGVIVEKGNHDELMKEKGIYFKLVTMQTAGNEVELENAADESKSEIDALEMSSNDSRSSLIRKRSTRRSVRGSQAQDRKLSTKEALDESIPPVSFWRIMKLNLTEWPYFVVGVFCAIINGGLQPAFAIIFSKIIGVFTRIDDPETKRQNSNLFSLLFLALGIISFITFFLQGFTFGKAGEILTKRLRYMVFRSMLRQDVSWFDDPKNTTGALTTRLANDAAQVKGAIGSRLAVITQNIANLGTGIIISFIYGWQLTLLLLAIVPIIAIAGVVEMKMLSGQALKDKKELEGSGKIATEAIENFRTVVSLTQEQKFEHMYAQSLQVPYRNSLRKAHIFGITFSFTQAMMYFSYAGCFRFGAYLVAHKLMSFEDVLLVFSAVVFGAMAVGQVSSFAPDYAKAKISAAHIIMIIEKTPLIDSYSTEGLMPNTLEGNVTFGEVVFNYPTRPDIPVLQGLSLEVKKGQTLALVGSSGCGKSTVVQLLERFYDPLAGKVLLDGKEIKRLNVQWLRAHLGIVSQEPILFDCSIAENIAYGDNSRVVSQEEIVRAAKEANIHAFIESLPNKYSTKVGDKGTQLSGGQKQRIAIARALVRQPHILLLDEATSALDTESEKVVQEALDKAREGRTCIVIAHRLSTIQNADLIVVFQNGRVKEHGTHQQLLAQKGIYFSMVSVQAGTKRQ
A short description of data set [9]: Example 2 Part E: single- and multiple-dose PK of tucatinib and ONT-993. The format is in vivo, human. As to conditions: tucatinib 300 mg BID, Day 14 vs Day 8.
In data set [10] the target is CYP2C9 (Homo sapiens, UniProt P11712). As to the kind of experiment: Ki determination in pooled human liver microsomes, diclofenac 4'-hydroxylase (Example 5). Also on record: endogenous in cells; host or cells: healthy human subjects, in vivo. The format is in vitro ADME. On the procedure:
The objective of this study was to evaluate in vitro the Ki of tucatinib of the following human hepatic cytochrome P450 (CYP) enzymes (CYP2C8, CYP2C9, and CYP3A4) and UGT1A1. […] Pooled human liver microsomes (HLM) from 150 individuals (79 males and 71 females) were obtained from BioreclamationIVT (Baltimore, Md.) and stored at approximately −70° C. The microsomes were characterized by the supplier for total protein and selected cytochrome P450 activities. […] The final organic solvent contribution was ≤1%. Incubations were terminated by the addition of chilled acetonitrile containing a stable isotope-labeled internal standard. […] Samples were analyzed by liquid chromatography with tandem mass spectrometry (LC-MS/MS). Analyte concentrations were quantified by LC-MS/MS and interpolated from standard curves of authentic analyte. […] Activities were calculated based on analyte concentration, incubation time, and protein concentration. Enzymatic activity (pmol/minute/mg protein) was expressed as the formation of the analyte per final protein concentration per incubation time. Activity remaining was expressed as the enzymatic activity at each concentration point of the test article normalized by the solvent control mean activity. […]

For data set [11], the target named is CYP3A4 (Homo sapiens, UniProt P08684). The experiment in a line: Example 2 Part A: effect of strong CYP3A4 inhibitor itraconazole on PK of tucatinib. The format is in vivo. Also on record: endogenous in cells; host or cells: healthy human subjects, in vivo. As to conditions: tucatinib 300 mg single dose in combination with itraconazole vs tucatinib alone. On the procedure: A primary objective of the study is to assess the effect of a strong CYP3A4 inhibitor (itraconazole) on the single-dose PK of tucatinib. […] They were discharged on Day 8 after completion of the in-patient assessments. […] On Day 3, each subject received oral doses of 200 mg of itraconazole, twice daily (BID). From Day 4 to Day 7, each subject received single oral doses of 200 mg of itraconazole once daily (QD). Itraconazole was administered in the fed state (within 5 minutes after completion of meals). On Day 6, each subject received a single oral dose of 300 mg of tucatinib at about 2 hours after the completion of breakfast and after itraconazole in the morning. […] Other noncompartmental PK parameters may be reported. Additionally, blood samples were collected for determination of trough levels of itraconazole prior to morning dosing on the days indicated in FIG. 5.
CYP3A4 (Homo sapiens, UniProt P08684), sequence (P08684 whole entry): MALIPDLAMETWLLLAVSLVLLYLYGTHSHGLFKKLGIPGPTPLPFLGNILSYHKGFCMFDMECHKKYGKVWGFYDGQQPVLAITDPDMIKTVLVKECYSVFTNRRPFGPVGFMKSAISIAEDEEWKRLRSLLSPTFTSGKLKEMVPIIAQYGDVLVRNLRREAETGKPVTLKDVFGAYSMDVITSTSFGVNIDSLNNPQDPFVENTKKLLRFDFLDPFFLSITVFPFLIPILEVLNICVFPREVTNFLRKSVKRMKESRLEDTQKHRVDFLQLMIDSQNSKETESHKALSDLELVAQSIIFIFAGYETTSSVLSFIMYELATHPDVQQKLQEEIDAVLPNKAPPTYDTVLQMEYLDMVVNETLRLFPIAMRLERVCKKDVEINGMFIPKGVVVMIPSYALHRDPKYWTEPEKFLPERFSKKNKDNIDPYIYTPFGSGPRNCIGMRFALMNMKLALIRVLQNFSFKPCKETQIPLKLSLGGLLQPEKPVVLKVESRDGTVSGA

Data set [12] deals with MATE1/2K. The experiment in a line: Phase 1 drug-drug interaction study: effect of tucatinib on metformin pharmacokinetics (Example 1). Particulars: healthy subjects, tucatinib 300 mg bid.

CYP2C9, sequence (P11712 whole entry): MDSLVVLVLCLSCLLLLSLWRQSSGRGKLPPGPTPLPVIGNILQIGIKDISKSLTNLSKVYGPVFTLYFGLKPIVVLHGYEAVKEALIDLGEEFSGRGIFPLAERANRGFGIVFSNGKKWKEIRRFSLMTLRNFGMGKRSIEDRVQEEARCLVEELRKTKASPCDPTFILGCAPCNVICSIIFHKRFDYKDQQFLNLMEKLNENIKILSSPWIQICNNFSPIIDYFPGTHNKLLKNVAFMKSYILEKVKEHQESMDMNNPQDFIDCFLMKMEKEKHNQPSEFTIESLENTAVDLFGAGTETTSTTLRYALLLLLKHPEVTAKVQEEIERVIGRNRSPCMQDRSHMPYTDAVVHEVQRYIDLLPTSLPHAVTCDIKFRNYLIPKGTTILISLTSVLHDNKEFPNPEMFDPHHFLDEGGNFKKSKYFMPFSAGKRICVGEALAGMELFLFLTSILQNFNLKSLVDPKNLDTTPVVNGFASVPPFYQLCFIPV

`Cc1cc(Nc2ncnc3ccc(NC4=NC(C)(C)CO4)cc23)ccc1Oc1ccn2ncnc2c1` [tucatinib] returned an IC50 in [1] of 340 nM. In data set [2], the midpoint of inhibition, the IC50, lay at 140 nM. Besides, the “Steady-state plasma concentrations reached by” value in data set [3] was not above 6 days. In addition, the “Stability with respect to hepatic metabolism” value in data set [4] is listed as “good-to-moderate stability”. Moreover, the Cmax in [5] lay in the range of 1000 to 2000 nM. Besides, the “Induction of in vitro enzyme activity or messenger ribonucleic acid, CYP3A4” value in [6] is “did not induce”. The “Induction of in vitro enzyme activity or messenger ribonucleic acid, CYP1A2” value in data set [7] is “did not induce”. In data set [8], the half-maximal inhibitory concentration (IC50) is 10000 to 30000 nM and the P-gp substrate status entry is “P-glycoprotein (P-gp) substrate”. The “Rac (accumulation ratio) after multiple dosing” value in [9] worked out at 1.50. For the same compound, the “Inhibition mechanism, CYP2C9” value in data set [10] is listed as “competitive inhibition”. Moreover, the Ki in [10] (marker substrate diclofenac) was found to be 4570 nM. In addition, in data set [11], the “Geometric LS mean ratio (90% CI), AUC0-∞” value is recorded as 1.34 (1.26, 1.43); the “Geometric LS mean ratio (90% CI), AUClast” value is listed as 1.33 (1.25, 1.41); the “Geometric LS mean ratio (90% CI), Cmax” value was 1.32 (1.23, 1.42). Also, in [12], the “Inhibition of the renal OCT2/MATE1/MATE2-K pathway in vivo” value is listed as “weak inhibitor”.
